The values below come from ChEMBL document CHEMBL5584355, “Harnessing Nitric Oxide-Donating Benzofuroxans for Targeted Inhibition of Carbonic Anhydrase IX in Cancer” (J Med Chem, 2024).

One data set concerns the target Carbonic anhydrase 9 (Homo sapiens, UniProt Q16790). Briefly: Inhibition of human recombinant CA9 by phenol red dye based stopped flow CO2 hydration assay.
Another data set deals with Carbonic anhydrase 1 (Homo sapiens, UniProt P00915). Briefly: Inhibition of human recombinant CA1 by phenol red dye based stopped flow CO2 hydration assay.
For data set [1], the system named is HEK293. Briefly: Cytotoxicity against HEK293 cells assessed as inhibition of cell growth at 77 uM by celltiter-glo assay. It is filed as toxicity, cell-based. As to conditions: human, hek293, 77 µM.
The test system of data set [2] is HEK293. Briefly: Cytotoxicity against HEK293 cells assessed as inhibition of cell growth at 46 uM by celltiter-glo assay. It counts as toxicity, cell-based. As to conditions: human, hek293, 46 µM.
Data set [3] can be described thus: Toxicity in female C57BL6/J mouse assessed as hematic pH at 10 mg/kg, ip administered daily for 2 weeks and measured 1 hr post last dose (reference value: 7.1). It is filed as organism-based. As to conditions: in vivo, 336 h.
The target in a further data set is Carbonic anhydrase 2 (Homo sapiens, UniProt P00918). Briefly: Inhibition of human recombinant CA2 by phenol red dye based stopped flow CO2 hydration assay.
The next data set addresses Carbonic anhydrase 12 (Homo sapiens, UniProt O43570). As to the kind of experiment: Inhibition of human recombinant CA12 by phenol red dye based stopped flow CO2 hydration assay.

Carbonic anhydrase 1, sequence (P00915 whole entry): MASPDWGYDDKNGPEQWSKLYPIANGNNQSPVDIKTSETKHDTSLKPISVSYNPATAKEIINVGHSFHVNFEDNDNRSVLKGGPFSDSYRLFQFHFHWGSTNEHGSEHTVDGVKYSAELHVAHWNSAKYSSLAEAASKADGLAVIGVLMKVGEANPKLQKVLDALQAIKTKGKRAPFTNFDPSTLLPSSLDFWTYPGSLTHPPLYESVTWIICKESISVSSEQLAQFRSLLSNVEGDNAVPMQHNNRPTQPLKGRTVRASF
Carbonic anhydrase 12, sequence (O43570 whole entry): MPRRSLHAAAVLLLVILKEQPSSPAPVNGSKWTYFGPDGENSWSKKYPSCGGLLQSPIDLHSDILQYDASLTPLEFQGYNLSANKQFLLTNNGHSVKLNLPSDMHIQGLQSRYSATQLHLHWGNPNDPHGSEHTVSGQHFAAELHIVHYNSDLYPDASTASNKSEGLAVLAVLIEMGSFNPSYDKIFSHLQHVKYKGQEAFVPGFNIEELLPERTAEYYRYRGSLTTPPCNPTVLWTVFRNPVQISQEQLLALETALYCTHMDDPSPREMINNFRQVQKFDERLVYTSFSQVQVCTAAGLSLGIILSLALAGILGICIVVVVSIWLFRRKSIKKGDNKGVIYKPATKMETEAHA

By Ki is commonly meant the dissociation constant of the complex between target and ligand, obtained from inhibition or displacement. In the case of `NS(=O)(=O)c1ccc(CNC(=O)c2ccc3c(c2)no[n+]3[O-])cc1`, the inhibition constant Ki on Carbonic anhydrase 9 came out at 0.0379 µM; on Carbonic anhydrase 1, 0.0831 µM. For the compound `NS(=O)(=O)c1ccc(CCN(Cc2ccc(F)cc2)C(=O)c2ccc3c(c2)no[n+]3[O-])cc1`, the Activity result with HEK293 [1] was “Non-Toxic”. On to `NS(=O)(=O)c1ccc(CCN(Cc2ccccc2)C(=O)c2ccc3c(c2)no[n+]3[O-])cc1`, for which the Ki at Carbonic anhydrase 9 was 0.0104 µM; at Carbonic anhydrase 1 it was 0.618 µM. For the same compound, the Activity entry in the data set with HEK293 [2] is on record as “Non-Toxic”. Besides, the pH in data set [3] amounted to 6.9. For the compound `NS(=O)(=O)c1cccc(NC(=O)c2ccc3c(c2)no[n+]3[O-])c1`, the Ki was 0.0415 µM at Carbonic anhydrase 9 and 7.66 µM on Carbonic anhydrase 1. With `N#CCCN(CCc1ccc(S(N)(=O)=O)cc1)C(=O)c1ccc2c(c1)no[n+]2[O-]`, the inhibition constant (Ki) on Carbonic anhydrase 9 worked out at 0.0203 µM. Turning to `NS(=O)(=O)c1ccc(O)c(NC(=O)c2ccc3c(c2)no[n+]3[O-])c1`, the Ki at Carbonic anhydrase 9 was found to be 0.0611 µM; on Carbonic anhydrase 1, 8.45 µM.

Turning to `O=C(Oc1ccc2oc(=O)ccc2c1)c1ccc2c(c1)no[n+]2[O-]`, the Ki on Carbonic anhydrase 9 was 0.0158 µM; at Carbonic anhydrase 1 it was greater than 10 µM. `NS(=O)(=O)c1ccc(OC(=O)c2ccc3c(c2)no[n+]3[O-])cc1`: the Ki amounted to 0.0387 µM at Carbonic anhydrase 9 and 0.736 µM on Carbonic anhydrase 1. For the compound `O=C(OCCCOc1ccc2ccc(=O)oc2c1)c1ccc2c(c1)no[n+]2[O-]`, at Carbonic anhydrase 1, the Ki was greater than 10 µM. Consider `O=C(Oc1ccc2ccc(=O)oc2c1)c1ccc2c(c1)no[n+]2[O-]`, for which, at Carbonic anhydrase 9, the Ki came to 0.304 µM. Take `NS(=O)(=O)c1ccc(CCNC(=O)c2ccc3c(c2)no[n+]3[O-])cc1`: the Ki on Carbonic anhydrase 9 was determined as 0.0126 µM; at Carbonic anhydrase 1, 0.445 µM; on Carbonic anhydrase 2, 0.0901 µM; at Carbonic anhydrase 12, 0.0261 µM.

On to `O=C(NCCOc1ccc2ccc(=O)oc2c1)c1ccc2c(c1)no[n+]2[O-]`, for which, on Carbonic anhydrase 1, the Ki was greater than 10 µM. As to `NS(=O)(=O)c1ccc(CCN(Cc2ccco2)C(=O)c2ccc3c(c2)no[n+]3[O-])cc1`, the Ki at Carbonic anhydrase 9 worked out at 0.0231 µM; at Carbonic anhydrase 1 it was 0.602 µM. Consider `O=C(NCCOc1ccc2oc(=O)ccc2c1)c1ccc2c(c1)no[n+]2[O-]`, for which the Ki on Carbonic anhydrase 9 was determined as 0.0236 µM.

`NS(=O)(=O)c1ccc(NC(=O)c2ccc3c(c2)no[n+]3[O-])cc1`: the Ki turned out to be 0.0697 µM on Carbonic anhydrase 9 and 0.792 µM at Carbonic anhydrase 1. As for `NS(=O)(=O)c1cc(C(=O)O)c(NCc2ccco2)cc1Cl` [FUROSEMIDE], the pH in data set [3] was 7.05.

Turning to `O=C(O)c1ccc2c(c1)no[n+]2[O-]`, the Ki was 2.65 µM on Carbonic anhydrase 9, greater than 10 µM on Carbonic anhydrase 1, 8.73 µM on Carbonic anhydrase 2 and 0.995 µM on Carbonic anhydrase 12. Turning to `O=C(OCCCOc1ccc2oc(=O)ccc2c1)c1ccc2c(c1)no[n+]2[O-]`, the Ki at Carbonic anhydrase 9 is 0.0485 µM. As for `O=C(OCCOc1ccc2ccc(=O)oc2c1)c1ccc2c(c1)no[n+]2[O-]`, the Ki at Carbonic anhydrase 9 was 0.112 µM; on Carbonic anhydrase 1, greater than 10 µM. Taken in the same sequence, the figures for `NS(=O)(=O)c1ccc(CCN(CCc2ccccc2)C(=O)c2ccc3c(c2)no[n+]3[O-])cc1` were 0.0149 µM and 0.831 µM.
